How the values were obtained:
rat aorta = test: Vasodilating effect in a rat aorta (relaxation of KCl-induced contraction); parameters: species or system rat (male Wistar rat); details: isolated rat thoracic aorta, 40 mM KCl; read-out: IC50 (concentration for inhibiting 50% of the tension induced by KCl)
Experimental: Physiological effect of the compound of the present invention was tested by the method with use of an isolated rat aorta.
Thoracic aorta was isolated from a male Wistar rat (body weight, 250-350 g) exsanguinated to death for obtaining ring preparations having a width of 3 mm. The preparations were suspended into an organ bath filled with the Krebs-Ringer solution through which a mixed gas of 95% O2 and 5% CO2 had been aerated at 37° C. A resting tension of 1 g was applied to the preparation. After the tension in the preparation was stabilized, the solution in the organ bath was exchanged with an equimolar solution containing 40 mM KC1 to increase the tension of the preparation. When the tension induced by KCl become stable, the test compound was cumulatively added to the organ bath to relax the preparation. Relaxation response was expressed as percentage inhibition of KCl-induced contraction, and the IC50 value (concentration for inhibiting 50% of the tension induced by KCl) was calculated from the average concentration-response curve by the Probit method.

[1] = Acute toxicity, oral, Compound No. 18; details: rat, in vivo, male SD rats (5 weeks old)
Experimental: Acute toxicity of 5-amino-N-cyano-N'-(2-nitroxyethyl)-3-pyridinecarboximidamide (Compound No. 18) of the present invention on oral administration was examined with male SD rats (5 weeks old). As a result, LD50 was about 600 mg/kg.

[2] = system: coronary blood flow (circumflex branch of the left coronary artery), beagles; test: Coronary dilating effect on beagles (coronary blood flow, anesthetized dog); type: in vivo; details: i.v., 10 Mg/Kg
Experimental: Coronary dilating effects of 5-amino-N-cyano-N'-(2-nitroxyethyl)-3-pyridinecarboximidamide (Compound No. 18) of the present invention was assessed by comparison with those of N-cyano-N'-(2-nitroxyethyl)-3-pyridinecarboximidamide methanesulfonic acid (compound described in Japanese Patent Laid-Open Publication No. 163061/1991) which is thought to be a well-known compound most similar to the compound of the present invention.
A dog (body weight, 8.3 kg) was anesthetized with 30 mg/kg of pentobarbital sodium intravenously. Respiration was maintained with room air through a cuffed endotracheal tube. The drug was administered through the femoral vein, and the coronary blood flow was measured by a probe attached to the circumflex branch of the left coronary artery.

[3] = system: spontaneously hypertensive rats (SHR), systolic blood pressure; test: Antihypertensive effects on conscious SHR (oral), Compound Nos. 18 and 19; type: in vivo, rat (male spontaneously hypertensive rats
Experimental: Antihypertensive effects of- 5-amino-N-cyano-N'-(2-nitroxyethyl)-3-pyridinecarboximidamide (N-cyano-N'-(2-nitroxyethyl)-5-(3-aminopyridine)carboximidamide; Compound No. 18) and N-cyano-5-ethylamino-N'-(2-nitroxyethyl)-3-pyridinecarboximidamide (N-cyano-N'-(2-nitroxyethyl)-5-[3-(N-ethylaminopyridine)]carboximidamide; Compound No. 19) were assessed by comparison with those of the methanesulfonate salt of N-cyano-N'-(2-nitroxyethyl)-3-pyridinecarboximidamide (compound described in Japanese Patent Laid-Open Publication No. 163061/1991) as a reference compound which is thought to be a well-known compound most similar to the compound of the present invention.
Systolic blood pressure (SBP) was measured with the tail cuff method.
Each of the compound Nos. 18 and 19 was dissolved in an equivalent mixture of polyethylene glycol 200 and physiological saline, and the reference compound was dissolved in physiological saline. The compounds were administered orally with the aid of an oral probe. SBP was measured before administration and 1, 2, 4, 6, 8, 12 and 24 hours after administration of the compound. The results were expressed as the percentage change in SBP observed before administration.

N#CNC(=NCCO[N+](=O)[O-])c1cncc(N)c1 [Compound No. 18, 5-amino-N-cyano-N'-(2-nitroxyethyl)-3-pyridinecarboximidamide]
IC50 (rat aorta): 22 µM
LD50 [1]: ~600 mg/kg
increase of coronary blood flow [2]: increase of coronary blood flow was observed
time for which the increase of coronary blood flow was retained [2]: ≥ 15 min
percent change of coronary blood flow as compared with the blood flow before administration ([2]; 1 min after dosage): 200.0%
percent change of coronary blood flow as compared with the blood flow before administration ([2]; 3 min after dosage): 123.8%
percent change of coronary blood flow as compared with the blood flow before administration ([2]; 5 min after dosage): 71.4%
percent change of coronary blood flow as compared with the blood flow before administration ([2]; 10 min after dosage): 19.0%
percent change of coronary blood flow as compared with the blood flow before administration ([2]; 15 min after dosage): 19.0%
percent change of coronary blood flow as compared with the blood flow before administration ([2]; 20 min after dosage): 0.0%
decrease in blood pressure / antihypertensive effect ([3]; 3.0 mg/kg oral): decrease in blood pressure was observed
duration of the antihypertensive effect ([3]; 3.0 mg/kg oral): ≥ 12 h
percent change in SBP observed before administration of the compound ([3]; 3.0 mg/kg oral, 1 hour after administration): -56.9%
percent change in SBP observed before administration of the compound ([3]; 3.0 mg/kg oral, 2 hour after administration): -49.2%
percent change in SBP observed before administration of the compound ([3]; 3.0 mg/kg oral, 4 hour after administration): -42.6%
percent change in SBP observed before administration of the compound ([3]; 3.0 mg/kg oral, 6 hour after administration): -17.9%
percent change in SBP observed before administration of the compound ([3]; 3.0 mg/kg oral, 8 hour after administration): -20.5%
percent change in SBP observed before administration of the compound ([3]; 3.0 mg/kg oral, 12 hour after administration): -22.2%
percent change in SBP observed before administration of the compound ([3]; 3.0 mg/kg oral, 24 hour after administration): -3.7%
antihypertensive activity or coronary vasodilating effect determined with the passage of time ([3]; summary statement): remarkably potent and sustainable
